Test results: patent US6706741B2, “Acetylcholinesterase inhibitors containing 1-benzyl-pyridinium salts” (priority 2000, dated 2004)

Target: T1, acetylcholinesterase (Rattus norvegicus, UniProt P37136)
T1 construct: Using a rat brain homogenate as a source of acetylcholinesterase; from tissue; host or cells: rat brain homogenate
Experiment: biochemical
Settings: rat brain homogenate as source of acetylcholinesterase; acetylthiocholine substrate, DTNB, absorbance at 412 nm
Method: Using a rat brain homogenate as a source of acetylcholinesterase, the esterase activity was determined in accordance with the method of Ellman et al^1).
^1); Ellman. G. L., Courtney, K. D., Andres, V. and Featherstone, R. M., (1961), Biochem. Pharmacol., 7, 88-95.

T1 sequence (P37136 32-614): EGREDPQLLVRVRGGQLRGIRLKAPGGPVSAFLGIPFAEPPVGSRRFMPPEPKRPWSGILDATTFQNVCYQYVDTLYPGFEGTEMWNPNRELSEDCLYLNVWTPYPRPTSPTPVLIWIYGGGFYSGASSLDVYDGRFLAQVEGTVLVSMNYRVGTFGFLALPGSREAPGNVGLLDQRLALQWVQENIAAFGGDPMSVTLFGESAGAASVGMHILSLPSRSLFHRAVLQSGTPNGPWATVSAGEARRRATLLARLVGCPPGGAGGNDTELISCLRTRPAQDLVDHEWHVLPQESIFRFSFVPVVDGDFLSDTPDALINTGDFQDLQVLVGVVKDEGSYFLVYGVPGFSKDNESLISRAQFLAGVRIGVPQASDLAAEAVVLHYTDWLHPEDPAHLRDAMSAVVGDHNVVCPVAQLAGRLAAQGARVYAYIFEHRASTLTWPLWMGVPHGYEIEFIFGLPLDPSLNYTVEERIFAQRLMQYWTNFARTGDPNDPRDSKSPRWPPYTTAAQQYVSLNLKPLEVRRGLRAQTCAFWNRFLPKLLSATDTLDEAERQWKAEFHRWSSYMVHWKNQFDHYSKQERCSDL

Work on COc1cc2c(cc1OC)C(=O)C(Cc1cc[n+](Cc3ccccc3)cc1)C2 (stereo not shown) [Example 1, 1-Benzyl-4-[(5.6-dimethoxy-1-indanone)-2-yl]methylpyridinium bromide] yielded an IC50 of 3.8 nM.
